Values belong to the molecule of their own block, whether it stands above or below them. Residues, ends and D or L forms follow the SMILES beside them.
What was measured:
NRK cells [1] = experiment: Intracellular payload (Cy5) release in NRK cells with or without cathepsin B inhibitor; format: cell-based, rat
Procedure: FIG. 13A-13B: (A) HB-2108 is strongly endocytosed and cleaved leading to diffuse staining, (B) Inhibiting Cathepsin B mitigates diffuse pattern.
We synthesized HB2108, by linking AcPQLPF to Cy5 via a cathepsin-labile valine-citrulline linker. NRK cells were then treated with HB2108 and α2M in the presence and absence of a cathepsin B inhibitor.

NRK cells [2] = experiment: Co-localized endocytosis of Sulfo-Cy5 33-mer gluten peptide and fluorescent α2M in NRK cells; format: cell-based, rat; conditions: Sulfo-Cy5-tagged 33 mer; compared with α2M and HB230
Procedure: FIGS. 6A-6B: Fluorescently tagged 33 mer peptide (A) induces a similar pattern of internalization of α2M as HB-230 (B).
Thus far, endocytosis of the TG2-α2M complex had exclusively been visualized using peptidic probes that irreversibly label the active site of TG2. To investigate whether transient enzyme-substrate complexes can be efficiently internalized in an α2M-dependent manner, NRK cells were co-incubated with fluorescent α2M and the aforementioned 33-residue gluten peptide (33 mer) tagged with a Sulfo-Cy5 fluorophore.

cubilin = experiment: Depletion of cell surface cubilin on NRK cells; format: cell-based, rat
Procedure: FIG. 12A-12C: (A) Treating NRK cells with increasing concentrations of HB-3-002 leads to decrease of cell membrane cubilin after a 90 min treatment. (B) Quantification of dose response.
Cell surface proteins can also be pharmacological targets. Thus we targeted cubilin, the canonical receptor for the intrinsic factor (IF)-vitamin B12 complex. We synthesized a pentapeptide harbouring a Gln residue in the X position, and vitamin B12 conjugated to the DAB substituted Y amino acid through a PEG-5 linker (HB3-2). […] Cubilin is stained using a sheep anti cubilin antibody which recognizes rat cubilin and an ovine Alexa-647 secondary antibody.

streptavidin = experiment: Endocytosis of fluorescent streptavidin by NRK cells; format: cell-based, rat
Procedure: FIG. 11: (A) Treating NRK cells with increasing concentrations of HB-3-003 in the presence of fluorescently tagged streptavidin leads to increased internalization of streptavidin after a 90 min treatment. (B) Quantification of dose response.
In order to determine the ability of this pathway to clear specifically targeted proteins from the extracellular environment, we synthesized a pentapeptide harboring the electrophilic warhead and a PEG-4 biotin conjugated to the DAB substituted Y amino acid (HB2110). Streptavidin is expected to bind to the biotin arm of the probe, and thus be endocytosed along with the rest of the complex as previously described. To test this hypothesis NRK cells were treated with 2 μM HB2110 and 1 μM Cy5-conjugated streptavidin.
We also synthesized the equivalent pentapeptide harbouring a Gln residue in the place of the electrophilic warhead, with biotin conjugated to the DAB substituted Y amino acid through a PEG linker (HB3-3). We then assed the ability of cells to endocytose fluorescent streptavidin in the presence of HB3-3 and α2M.

[3] = system: clathrin mediated endocytosis; experiment: Inhibition of α2M / 33-mer endocytosis by inhibitors of clathrin mediated endocytosis in NRK cells; format: cell-based, rat
From the text: FIG. 7A-7D: (A) Endocytosis of α2M (green) and 33 mer gluten peptide (red) by NRK cells.
Low density lipoprotein (LDL) receptor-related protein 1 (LRP-1, a.k.a., (α2M receptor or CD91), a member of the LDL receptor family, is responsible for receptor-mediated endocytosis of α2M. Although this receptor is expressed on the surface of a wide range of cell types within the body, α2M endocytosis by LRP-1 is only triggered when this ubiquitous plasma protein undergoes a conformational change upon binding to its protease or non-protease ligands (Bres and Faissner, 2019). We sought to establish whether endocytosis of the ternary α2M-TG2-peptide complex was mediated by LRP-1 using pharmacologic inhibitors of clathrin mediated endocytosis.

carboxypeptidase = experiment: Metabolism by carboxypeptidase; format: in vitro ADME; conditions: role: substrate, subsequent to chymotrypsin
From the text: (§1) FIGS. 14A-14B. Metabolic stability of HB-230 and HB-2121. (A) HB-230 is transformed by chymotrypsin to give the C-terminal carboxylic acid. This metabolite is subsequently cleaved by carboxypeptidase to give the tetrapeptide without the terminal phenylalanine. (B) HB-2121 is stable to both chymotrypsin and carboxypeptidase mediated metabolism.
(§2) HB-2121 is analogous to the TG2 inhibitor/probe HB-230 but with one modification; the primary amide C-terminus of HB-230 was replaced with a tertiary dimethyl amide. This change greatly enhances the gastrointestinal stability of the probe.

chymotrypsin = experiment: Metabolism by chymotrypsin; format: in vitro ADME; conditions: role: substrate
From the text: as §1, §2

[4] = system: normal rat kidney (NRK) cells; experiment: Uptake of fluorescent probe by NRK cells with or without α2M; format: cell-based
From the text: (C) Fluorescently tagged α2M colocalizes strongly with HB-230.
FIG. 15. Uptake of HB-2121.
Puncta of two distinct sizes were observed.
To verify that HB230 internalization was dependent on TG2 activity, HB258 was designed and synthesized as a control probe. This dihydro-analog is otherwise identical to HB230 but lacks its electrophilic warhead and is therefore unable to irreversibly bond to the active site C277 residue of TG2.

human TG2 = biological target: T1, human TG2 (Homo sapiens, UniProt P21980); experiment: Steady-state kinetic analysis / TG2 inhibition; format: biochemical; conditions: role: inhibitor, substrate PQLPF and inhibitor concentrations varied
T1 sequence (P21980 1-687): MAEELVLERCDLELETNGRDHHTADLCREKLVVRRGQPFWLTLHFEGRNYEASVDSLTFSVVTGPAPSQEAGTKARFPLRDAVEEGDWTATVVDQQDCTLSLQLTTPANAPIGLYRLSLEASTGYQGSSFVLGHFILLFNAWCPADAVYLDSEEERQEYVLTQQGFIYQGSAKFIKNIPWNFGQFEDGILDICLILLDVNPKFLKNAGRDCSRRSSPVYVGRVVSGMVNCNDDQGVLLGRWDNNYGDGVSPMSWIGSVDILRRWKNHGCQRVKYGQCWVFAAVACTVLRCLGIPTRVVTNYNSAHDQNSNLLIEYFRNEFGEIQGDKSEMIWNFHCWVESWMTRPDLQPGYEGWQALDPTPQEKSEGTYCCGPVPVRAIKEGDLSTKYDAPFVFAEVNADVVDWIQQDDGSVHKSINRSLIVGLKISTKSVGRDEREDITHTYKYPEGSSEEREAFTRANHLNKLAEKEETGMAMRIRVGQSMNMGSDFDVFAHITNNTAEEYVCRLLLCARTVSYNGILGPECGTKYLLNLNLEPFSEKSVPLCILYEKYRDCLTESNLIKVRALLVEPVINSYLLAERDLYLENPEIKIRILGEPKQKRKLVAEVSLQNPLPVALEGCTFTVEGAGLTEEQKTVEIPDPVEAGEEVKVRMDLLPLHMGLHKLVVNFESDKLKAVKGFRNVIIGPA
From the text: FIG. 1: Kinetic analysis of TG2 inhibition by HB-225. Both substrate (PQLPF) and inhibitor concentrations were varied.
FIG. 2: Comparison of TG2 inhibition by HB-225 and HB-230. The two compounds have very similar kinetic properties.
Encouraged by this finding, we went on to design and synthesize our target fluorescent probe, HB230, in which a second unnatural amino acid residue, diaminobutyrate (DAB), was installed in place of Leu (L) in HB225. This residue was also predicted to neither be recognized by TG2 nor HLA-DQ2. Attachment of a Sulfo-Cy5 fluorophore via amide linkage to the DAB residue yielded the desired probe.

TG2 = conditions: role: inhibitor; absence of active site occupancy; Palanski and Khosla, 2018; cited from earlier work
α2M = experiment: Internalization of fluorescently labeled α2M by NRK cells in the presence of unlabeled TG2 inhibitors; format: cell-based, rat; conditions: 100 μM cystamine by itself
Procedure: FIG. 5A-5C: (A) HB-225 induces a dose dependent uptake of fluorescently tagged α2M.
To identify the conformational requirements for high-affinity recognition of TG2 by α2M, fluorescently labeled α2M was added to NRK cell cultures in the presence of different (unlabeled) TG2 inhibitors.

[5] = high concentrations of both the probe and α2M

Molecule: CC(=O)N1CCC[C@H]1C(=O)N[C@@H](CCC(N)=O)C(=O)N[C@@H](CC(C)C)C(=O)N1CCC[C@H]1C(=O)N[C@@H](Cc1ccccc1)C(=O)N[C@H](C(=O)N[C@@H](CCCNC(N)=O)C(=O)NCCCCCCNC(=O)CCCCC[N+]1=C(/C=C/C=C/C=C2/N(C)c3ccccc3C2(C)C)C(C)(C)c2ccccc21)C(C)C [HB-2108] (HELM PEPTIDE1{[ac].P.Q.L.P.F.V.[Cit].[CN1/C(=C/C=C/C=C/C2=[N+](CCCCCC(=O)NCCCCCCN[*:1])c3ccccc3C2(C)C)C(C)(C)c2ccccc21]}$$$$V2.0)
- Cy5 staining / colocalization with α2M (NRK cells [1]; absence of cathepsin B inhibitor): very diffuse and no longer colocalizes with α2M
- Cy5 staining / colocalization with α2M (NRK cells [1]; pre-treatment with cathepsin inhibitor): remains strongly colocalized with α2M in the lysosome

Molecule: LQLQPFPQPQLPYPQPQLPYPQPQLPYPQPQPF [33 mer, 33-residue gluten peptide tagged with a Sulfo-Cy5 fluorophore]
- co-localized endocytosis with fluorescent α2M (NRK cells [2]): entirely analogous pattern of co-localized endocytosis

Molecule: vitamin B12 [reference compound]
- depletion of cubilin by individual components (cubilin; component alone): do not promote the depletion of cubilin

Molecule: CC(=O)N1CCC[C@H]1C(=O)N[C@@H](CCC(N)=O)C(=O)N[C@@H](CCC(=O)NCCOCCOCCNC(=O)CCCC[C@@H]1SC[C@@H]2NC(=O)N[C@@H]21)C(=O)N1CCC[C@H]1C(=O)N[C@@H](Cc1ccccc1)C(N)=O [HB-3-003] (HELM PEPTIDE1{[ac].P.Q.E.P.F.[am]}|CHEM1{[O=C(CCCC[C@@H]1SC[C@@H]2NC(=O)N[C@@H]21)NCCOCCOCCN[*:1]]}$PEPTIDE1,CHEM1,4:R3-1:R1$$$V2.0)
- endocytosis of fluorescent streptavidin (streptavidin; presence of α2M, 90 min): endocytosed in an HB3-3 dose dependent manner

Molecule: O=C(N/N=C/c1cc(O)c(O)cc1O)c1cc2ccccc2cc1O [Dyno-4a]
- inhibition of α2M and peptide colocalization as large endocytic puncta ([3]; 20 uM Dyno-4a): strong inhibition

Molecule: methyl-β-cyclodextrin
- inhibition of α2M and peptide colocalization as large endocytic puncta ([3]; 12.5 mM MβCD): strong inhibition

Molecule: O=C(O)CCCC[C@@H]1SC[C@@H]2NC(=O)N[C@@H]21 [Biotin, reference compound]
- uptake of streptavidin by individual components (streptavidin; component alone, NRK cells): do not lead to increased uptake of streptavidin

Molecule: CC(=O)N1CCC[C@H]1C(=O)N[C@@H](CC/C=C/C(=O)N(C)C)C(=O)N[C@@H](CCNC(=O)CCCCC[N+]1=C(/C=C/C=C/C=C2/N(C)c3ccc(S(=O)(=O)O)cc3C2(C)C)C(C)(C)c2cc(S(=O)(=O)[O-])ccc21)C(=O)N1CCC[C@H]1C(=O)N[C@@H](Cc1ccccc1)C(=O)N(C)C [HB-2121]
- metabolism by carboxypeptidase (carboxypeptidase): no subsequent metabolism
- metabolism by chymotrypsin (chymotrypsin): complete resistance to metabolism
- uptake by NRK cells with or without α-2-macroglobulin ([4]; 2 μM HB-2121, with or without 100 μg/mL α-2-macroglobulin): α2M-enhanced endocytic uptake

- Ki (human TG2): 13 µM
- kinact (human TG2; read-out: ki (inactivation of TG2) (converted)): 0.000833 s⁻¹
Molecule: CC(=O)N1CCC[C@H]1C(=O)N[C@@H](CC/C=C/C(=O)N(C)C)C(=O)N[C@@H](CC(C)C)C(=O)N1CCC[C@H]1C(=O)N[C@@H](Cc1ccccc1)C(N)=O [HB-225] (HELM PEPTIDE1{[ac].P.[CN(C)C(=O)/C=C/CC[C@H](N[*:1])C(=O)[*:2]].L.P.F.[am]}$$$$V2.0)

Molecule: NCCSSCCN [Cystamine, cystamine]
- inactivation of TG2 (TG2): inactivates TG2 by promoting C370-C371 disulfide bond formation
- internalization of fluorescent α2M (α2M): unable to promote rapid internalization of fluorescent α2M by itself

Molecule: O=C1N=C(NS(=O)(=O)c2cccc3ccccc23)S/C1=C\c1ccc(Br)cc1 [Pitstop-2]
- inhibition of α2M and peptide colocalization as large endocytic puncta ([3]; 25 uM Pitstop): strong inhibition

Molecule: CC(=O)N1CCC[C@H]1C(=O)N[C@@H](CCCCC(=O)N(C)C)C(=O)N[C@@H](CCNC(=O)CCCCC[N+]1=C(/C=C/C=C/C=C2/N(C)c3ccc(S(=O)(=O)O)cc3C2(C)C)C(C)(C)c2cc(S(=O)(=O)[O-])ccc21)C(=O)N1CCC[C@H]1C(=O)N[C@@H](Cc1ccccc1)C(N)=O [HB-258]
- appearance of intracellular puncta [4, 5]: only appears as small intracellular puncta
- uptake by NRK cells (probe without electrophilic warhead) [4, 5]: does not undergo significant uptake by NRK cells

B1: RAP: inhibitor of LRP-1 (protein, UniProt P30533 35-357, looked up)
Alpha-2-macroglobulin …: YSREKNQPKPSPKRESGEEFRMEKLNQLWEKAQRLHLPPVRLAELHADLKIQERDELAWKKLKLDGLDEDGEKEARLIRNLNVILAKYGLDGKKDARQVTSNSLSGTQEDGLDDPRLEKLWHKAKTSGKFSGEELDKLWREFLHHKEKVHEYNVLLETLSRTEEIHENVISPSDLSDIKGSVLHSRHTELKEKLRSINQGLDRLRRVSHQGYSTEAEFEEPRVIDLWDLAQSANLTDKELEAFREELKHFEAKIEKHNHYQKQLEIAHEKLRHAESVGDGERVSRSREKHALLEGRTKELGYTVKKHLQDLSGRISRARHNEL
- effect of LRP-1 inhibition on depletion of surface cubilin (cubilin; LRP-1 inhibited through RAP, HB3-2 with intrinsic factor): mitigates the depletion of surface cubilin

Source: patent US20260364210A1, “COMPOSITIONS AND METHODS FOR TRANSGLUTAMINASE-MEDIATED ENDOCYTOSIS” (The Board of Trustees of the Leland Stanford Junior …, priority 2022, published 2026)
